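Method: 48-hour compound exposure of cells in 96-well plates, five concentrations, linear interpolation of endpoints. GI50 = concentration required for 50% inhibition of growth.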 The source made the active and inactive calls. Cut-off read from the data, not from the text of the source: active = GI50 up to about 1.1 µM and inactive = higher. Bounds are passed on as bounds.

This note sets out measurements from ChEMBL document CHEMBL1201862, “PubChem BioAssay data set” (2004).

Some test systems named below: CAKI-1; HL-60; UACC-62; Hs-578T; NCI-H522; SF-268; SK-OV-3; OVCAR-3; HCT-116; PC-3; IGROV-1; HOP-92; M14; SF-539; HT-29; U-251; A549; RXF 393; UO-31; SNB-75.
Holding throughout (assay): inhibition of tumour cell growth, NCI panel, 48 h

Turning to `Cc1cc(C)n(-c2nc(-n3nc(C)cc3C)nc(-n3nc(C)cc3C)n2)n1`, the GI50 with CAKI-1 was 39.2 µM (inactive); with HL-60, > 100 µM (inactive); in the assay with UACC-62, > 100 µM (inactive); with Hs-578T, 50.5 µM (inactive); with NCI-H522 it was > 100 µM (inactive); in the assay on SF-268, > 100 µM (inactive). Further, the GI50 in the assay on SK-OV-3, in the assay with OVCAR-3, in the assay with HCT-116, with PC-3, with IGROV-1 and in the assay on HOP-92 was > 100 µM (inactive) each time. Also, the GI50 in the assay with M14 is > 100 µM (inactive); in the assay with SF-539 it was > 100 µM (inactive); in the assay on HT-29, > 100 µM (inactive); in the assay with U-251, > 10 µM (inactive); with A549 it was > 100 µM (inactive); in the assay on RXF 393, > 100 µM (inactive). Further, the GI50 in the assay on UO-31 was 43.3 µM (inactive).

On to `C[C@@H]1O[C@@H](O[C@H]2CC[C@]3(C=O)[C@H]4CC[C@]5(C)[C@@H](c6ccc(=O)oc6)CC[C@]5(O)[C@@H]4CC[C@]3(O)C2)[C@H](O)[C@H](O)[C@H]1O[C@@H]1O[C@H](CO)[C@@H](O)[C@H](O)[C@H]1O` [HELLEBRIN], for which the GI50 in the assay with CAKI-1 was 0.0121 µM (active); in the assay on HL-60 it was 0.00615 µM (active); in the assay on UACC-62 it was 0.027 µM (active); in the assay with Hs-578T it was 0.00653 µM (active); in the assay on NCI-H522, 0.00324 µM (active); in the assay on SF-268, 0.0375 µM (active). In addition, the GI50 was 0.0226 µM (active) in the assay on SK-OV-3; 0.00408 µM (active) in the assay with OVCAR-3; 0.0198 µM (active) in the assay with SNB-75; 0.00805 µM (active) in the assay on HCT-116; 0.00938 µM (active) in the assay with PC-3; 0.0183 µM (active) in the assay on IGROV-1. The GI50 with HOP-92 was 0.0402 µM (active); in the assay with M14 it was 0.021 µM (active); in the assay with SF-539, 0.00811 µM (active); in the assay with HT-29 it was 0.0212 µM (active); in the assay with U-251, 0.0223 µM (active); with UO-31, 0.0186 µM (active).

For `C#CCn1c(=O)c(C)cn(/C(=C\C(=O)OCC)C(=O)OCC)c1=O`, the GI50 in the assay with CAKI-1 was 1.36 µM (inactive); in the assay on HL-60 it was 1.35 µM (inactive); with UACC-62 it was 10.1 µM (inactive); in the assay with Hs-578T, 24.8 µM (inactive); with SF-268, 16.1 µM (inactive); with SK-OV-3 it was 28.6 µM (inactive). The GI50 was 6.17 µM (inactive) in the assay on OVCAR-3; 17.6 µM (inactive) in the assay with SNB-75; 3.34 µM (inactive) with HCT-116; 13.5 µM (inactive) in the assay on PC-3; 8.63 µM (inactive) with IGROV-1; 2.12 µM (inactive) in the assay with HOP-92. In addition, the GI50 in the assay with M14 was 4.19 µM (inactive); in the assay with SF-539 it was 1.28 µM (inactive); in the assay on HT-29, 1.72 µM (inactive); with U-251 it was 8.11 µM (inactive); with A549, 20 µM (inactive); in the assay on RXF 393 it was 1.95 µM (inactive). In addition, the GI50 in the assay with UO-31 is 12.7 µM (inactive).

`CCCCn1c(N)c(-c2nc3ccccc3o2)sc1=S`: the GI50 in the assay on CAKI-1 is 13.7 µM (inactive); in the assay with HL-60, > 100 µM (inactive); in the assay with UACC-62 it was 11.2 µM (inactive); in the assay on Hs-578T, 26.9 µM (inactive); in the assay on NCI-H522, 14.2 µM (inactive); with SF-268 it was 16.4 µM (inactive). The GI50 was 22.7 µM (inactive) with SK-OV-3; 16.7 µM (inactive) in the assay on OVCAR-3; 10.5 µM (inactive) in the assay on HCT-116; 23.4 µM (inactive) in the assay with PC-3; 21.8 µM (inactive) in the assay with IGROV-1; 45.5 µM (inactive) in the assay with HOP-92. Also, the GI50 in the assay on M14 was 23 µM (inactive); in the assay with SF-539, 10.1 µM (inactive); in the assay with HT-29, 27.4 µM (inactive); in the assay with U-251, 15.9 µM (inactive); with A549, 13.6 µM (inactive); in the assay with RXF 393, 36.7 µM (inactive). Moreover, the GI50 in the assay with UO-31 is 20 µM (inactive).

`CCCCCCCCCCC(C(=O)O)C1(C(=O)O)CCC(=O)O1` (stereo not drawn): the GI50 with CAKI-1 is > 100 µM (inactive); in the assay with HL-60 it was 90.8 µM (inactive); in the assay with UACC-62, > 100 µM (inactive); in the assay on Hs-578T, > 100 µM (inactive); with NCI-H522 it was > 100 µM (inactive); in the assay on SF-268 it was > 100 µM (inactive). Besides, the GI50 in the assay with SK-OV-3, with OVCAR-3, in the assay on SNB-75, in the assay with HCT-116, in the assay with PC-3 and in the assay with IGROV-1 was > 100 µM (inactive) in each case. Further, the GI50 in the assay on HOP-92, in the assay on M14, in the assay with HT-29, with U-251, with A549 and in the assay with RXF 393 was > 100 µM (inactive) in each case. Moreover, the GI50 in the assay with UO-31 was > 100 µM (inactive).

For the compound `Clc1ccc(NCc2nnc(COc3ccc(OCc4nnc(CNc5ccc(Cl)cc5)o4)c(Cl)c3)o2)cc1`, the GI50 was 28.7 µM (inactive) in the assay with CAKI-1; 3.52 µM (inactive) with HL-60; 4.66 µM (inactive) in the assay on UACC-62; 28.1 µM (inactive) in the assay on Hs-578T; 10.6 µM (inactive) in the assay with NCI-H522; 33.7 µM (inactive) with SF-268. In addition, the GI50 with OVCAR-3 was 29.7 µM (inactive); in the assay with HCT-116, > 100 µM (inactive); in the assay with PC-3, 24 µM (inactive); in the assay on IGROV-1, 17.2 µM (inactive); in the assay with HOP-92 it was 13.3 µM (inactive); with M14, > 100 µM (inactive). Moreover, the GI50 in the assay on HT-29 was 27.2 µM (inactive); in the assay with U-251, 39.3 µM (inactive); with A549 it was 49 µM (inactive); in the assay with RXF 393 it was 47.3 µM (inactive); in the assay on UO-31, 26.4 µM (inactive).

With `Cc1nc2c(c(N3CCN(C)CC3)n1)Cc1ccccc1-2`, the GI50 in the assay on CAKI-1 was 17.1 µM (inactive); in the assay on HL-60, 42.1 µM (inactive); with UACC-62, 42.6 µM (inactive); with Hs-578T, 65 µM (inactive); in the assay with NCI-H522, 16.9 µM (inactive); with SF-268 it was 62.4 µM (inactive). Further, the GI50 is > 100 µM (inactive) in the assay with SK-OV-3; 91.2 µM (inactive) in the assay on SNB-75; 46.5 µM (inactive) with HCT-116; 58.7 µM (inactive) in the assay with PC-3; 36.7 µM (inactive) with HOP-92; 50.9 µM (inactive) in the assay on M14. The GI50 in the assay on SF-539 was 84.7 µM (inactive); with HT-29, 44.1 µM (inactive); with U-251 it was 75.3 µM (inactive); in the assay with A549 it was 44.2 µM (inactive); in the assay with RXF 393, > 100 µM (inactive); in the assay on UO-31 it was 15 µM (inactive).

In the case of `N[C@@H]1CCN(c2c(F)cc3c(=O)c(C(=O)O)cn4c3c2Oc2c-4ccc3c2ccc2ccccc23)C1`, the GI50 in the assay with CAKI-1 was 6.53 µM (inactive); in the assay with HL-60, 5.16 µM (inactive); with UACC-62 it was 2.79 µM (inactive); with Hs-578T, 10.8 µM (inactive); with NCI-H522, 3.18 µM (inactive); with SF-268, 5.73 µM (inactive). For the same compound, the GI50 is 7.46 µM (inactive) with SK-OV-3; 21.5 µM (inactive) with OVCAR-3; 1.08 µM (active) in the assay on HCT-116; 2.82 µM (inactive) in the assay with PC-3; 0.413 µM (active) with IGROV-1; 2.13 µM (inactive) in the assay on HOP-92. Moreover, the GI50 in the assay with M14 is 5.55 µM (inactive); in the assay with SF-539, 3.01 µM (inactive); in the assay with HT-29, 0.241 µM (active); in the assay with U-251, 0.571 µM (active); with A549, 2.39 µM (inactive); with RXF 393, 1.2 µM (inactive). The GI50 with UO-31 was 3.24 µM (inactive).
